# Measured values as given in patent US7759331B2, “Pyridine-containing macroheterococylic compounds as kinase inhibitors” (Janssen Pharmaceutica NV, priority 2006, dated 2010).
# Experiments:
# Assay in all cases: Protein kinase selectivity panel
# Type in all cases: biochemical
# Conditions in all cases: 1.0 μM compound, 10 μM ATP
# EphB2(h) = target: T1, EphB2(h) (Homo sapiens, UniProt P29323)
# T1 sequence (P29323 19-1055): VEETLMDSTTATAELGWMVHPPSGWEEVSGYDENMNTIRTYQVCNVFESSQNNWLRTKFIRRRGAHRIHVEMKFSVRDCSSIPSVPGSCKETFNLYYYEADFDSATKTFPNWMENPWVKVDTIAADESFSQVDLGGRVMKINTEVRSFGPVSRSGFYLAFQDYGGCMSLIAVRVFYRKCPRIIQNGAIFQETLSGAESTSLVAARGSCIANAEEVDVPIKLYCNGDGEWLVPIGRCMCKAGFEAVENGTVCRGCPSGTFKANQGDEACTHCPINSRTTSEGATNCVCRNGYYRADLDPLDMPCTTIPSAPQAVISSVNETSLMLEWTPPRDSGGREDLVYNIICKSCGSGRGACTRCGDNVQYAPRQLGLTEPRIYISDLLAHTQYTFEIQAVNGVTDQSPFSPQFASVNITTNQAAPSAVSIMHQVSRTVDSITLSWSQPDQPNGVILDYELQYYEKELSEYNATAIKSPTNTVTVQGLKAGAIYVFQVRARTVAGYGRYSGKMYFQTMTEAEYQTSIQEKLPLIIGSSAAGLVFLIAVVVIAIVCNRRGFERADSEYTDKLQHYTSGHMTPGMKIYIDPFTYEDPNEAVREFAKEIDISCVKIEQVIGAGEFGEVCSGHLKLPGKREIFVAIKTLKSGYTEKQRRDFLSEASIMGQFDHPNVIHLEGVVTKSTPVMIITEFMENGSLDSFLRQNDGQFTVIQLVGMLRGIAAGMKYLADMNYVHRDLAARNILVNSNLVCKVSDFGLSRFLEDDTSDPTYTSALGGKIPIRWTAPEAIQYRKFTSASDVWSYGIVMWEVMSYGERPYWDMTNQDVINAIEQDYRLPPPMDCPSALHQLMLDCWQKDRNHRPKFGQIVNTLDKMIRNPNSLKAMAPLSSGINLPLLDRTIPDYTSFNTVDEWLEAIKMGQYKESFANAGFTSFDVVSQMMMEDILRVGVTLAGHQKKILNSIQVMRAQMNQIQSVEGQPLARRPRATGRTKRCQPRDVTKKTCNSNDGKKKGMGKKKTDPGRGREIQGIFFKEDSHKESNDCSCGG
# Outline: (§1)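 Substrate phosphorylation by each kinase is measured in the presence of 1.0 μM compound, using 10 μM ATP under time-linear conditions.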
# PKCμ(h) = target: T2, PKCμ(h) (Homo sapiens, UniProt Q15139)
# T2 sequence (Q15139 1-912): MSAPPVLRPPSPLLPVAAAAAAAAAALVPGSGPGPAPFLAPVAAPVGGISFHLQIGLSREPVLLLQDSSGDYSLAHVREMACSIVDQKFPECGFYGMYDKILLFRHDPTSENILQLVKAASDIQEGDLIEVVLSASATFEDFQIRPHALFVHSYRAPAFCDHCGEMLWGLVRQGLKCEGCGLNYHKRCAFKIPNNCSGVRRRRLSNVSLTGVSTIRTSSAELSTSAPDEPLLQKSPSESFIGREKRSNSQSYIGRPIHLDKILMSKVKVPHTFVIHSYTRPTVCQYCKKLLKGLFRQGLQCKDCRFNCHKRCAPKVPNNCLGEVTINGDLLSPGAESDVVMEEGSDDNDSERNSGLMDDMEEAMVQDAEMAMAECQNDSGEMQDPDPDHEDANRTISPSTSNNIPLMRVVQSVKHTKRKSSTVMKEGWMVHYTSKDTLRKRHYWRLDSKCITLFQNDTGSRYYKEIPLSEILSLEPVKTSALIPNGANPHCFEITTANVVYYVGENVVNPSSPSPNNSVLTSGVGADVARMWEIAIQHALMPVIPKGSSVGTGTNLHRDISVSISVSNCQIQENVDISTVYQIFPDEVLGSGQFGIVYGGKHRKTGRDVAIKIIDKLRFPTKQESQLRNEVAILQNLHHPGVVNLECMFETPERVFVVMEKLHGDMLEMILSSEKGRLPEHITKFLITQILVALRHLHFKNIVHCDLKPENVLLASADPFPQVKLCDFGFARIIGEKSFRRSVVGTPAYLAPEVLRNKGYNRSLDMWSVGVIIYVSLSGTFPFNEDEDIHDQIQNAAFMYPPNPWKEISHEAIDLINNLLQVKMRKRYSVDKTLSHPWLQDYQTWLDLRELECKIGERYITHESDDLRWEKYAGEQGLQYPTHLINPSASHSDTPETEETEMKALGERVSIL
# Outline: as §1
# FGFR3(h) = FGFR3(h) (Homo sapiens, UniProt P22607)
# Chain of FGFR3(h) (P22607 23-806): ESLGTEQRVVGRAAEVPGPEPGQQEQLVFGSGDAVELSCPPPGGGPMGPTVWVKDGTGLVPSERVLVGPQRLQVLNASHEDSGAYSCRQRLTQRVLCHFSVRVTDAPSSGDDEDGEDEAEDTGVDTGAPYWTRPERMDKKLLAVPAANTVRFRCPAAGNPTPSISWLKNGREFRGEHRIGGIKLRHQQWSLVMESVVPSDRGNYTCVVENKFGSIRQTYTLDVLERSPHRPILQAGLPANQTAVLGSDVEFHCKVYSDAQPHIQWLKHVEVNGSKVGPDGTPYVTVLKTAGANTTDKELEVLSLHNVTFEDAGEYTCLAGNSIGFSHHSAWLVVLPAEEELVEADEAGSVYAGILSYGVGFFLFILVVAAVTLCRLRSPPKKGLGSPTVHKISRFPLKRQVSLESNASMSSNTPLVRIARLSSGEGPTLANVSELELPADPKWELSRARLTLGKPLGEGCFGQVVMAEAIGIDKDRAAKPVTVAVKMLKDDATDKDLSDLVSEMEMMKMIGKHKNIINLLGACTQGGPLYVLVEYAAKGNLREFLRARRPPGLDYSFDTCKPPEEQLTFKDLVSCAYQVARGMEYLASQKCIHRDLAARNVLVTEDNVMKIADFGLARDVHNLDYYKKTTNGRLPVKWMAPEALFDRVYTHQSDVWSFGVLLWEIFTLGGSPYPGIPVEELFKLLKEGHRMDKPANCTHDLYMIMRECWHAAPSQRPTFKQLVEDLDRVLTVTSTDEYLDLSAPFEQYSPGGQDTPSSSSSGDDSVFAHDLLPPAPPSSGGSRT
# Outline: as §1
# SGK(h) = target: T3, SGK(h) (Homo sapiens, UniProt O00141, S422D)
# T3 sequence (O00141 60-431 S422D limits assumed): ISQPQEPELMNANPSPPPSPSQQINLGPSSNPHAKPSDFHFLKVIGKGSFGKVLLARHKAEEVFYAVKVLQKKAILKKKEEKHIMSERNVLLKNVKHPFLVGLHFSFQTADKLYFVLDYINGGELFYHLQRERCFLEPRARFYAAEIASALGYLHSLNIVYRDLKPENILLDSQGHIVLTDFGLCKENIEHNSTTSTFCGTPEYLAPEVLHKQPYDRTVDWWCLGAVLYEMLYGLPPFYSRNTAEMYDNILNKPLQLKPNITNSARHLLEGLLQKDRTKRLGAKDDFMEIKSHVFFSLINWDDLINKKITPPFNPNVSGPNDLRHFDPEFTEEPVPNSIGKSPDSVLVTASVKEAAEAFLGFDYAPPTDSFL
# Outline: as §1
# PDGFRβ(h) = PDGFRβ(h) (Homo sapiens, UniProt P09619)
# Chain of PDGFRβ(h) (P09619 33-1106): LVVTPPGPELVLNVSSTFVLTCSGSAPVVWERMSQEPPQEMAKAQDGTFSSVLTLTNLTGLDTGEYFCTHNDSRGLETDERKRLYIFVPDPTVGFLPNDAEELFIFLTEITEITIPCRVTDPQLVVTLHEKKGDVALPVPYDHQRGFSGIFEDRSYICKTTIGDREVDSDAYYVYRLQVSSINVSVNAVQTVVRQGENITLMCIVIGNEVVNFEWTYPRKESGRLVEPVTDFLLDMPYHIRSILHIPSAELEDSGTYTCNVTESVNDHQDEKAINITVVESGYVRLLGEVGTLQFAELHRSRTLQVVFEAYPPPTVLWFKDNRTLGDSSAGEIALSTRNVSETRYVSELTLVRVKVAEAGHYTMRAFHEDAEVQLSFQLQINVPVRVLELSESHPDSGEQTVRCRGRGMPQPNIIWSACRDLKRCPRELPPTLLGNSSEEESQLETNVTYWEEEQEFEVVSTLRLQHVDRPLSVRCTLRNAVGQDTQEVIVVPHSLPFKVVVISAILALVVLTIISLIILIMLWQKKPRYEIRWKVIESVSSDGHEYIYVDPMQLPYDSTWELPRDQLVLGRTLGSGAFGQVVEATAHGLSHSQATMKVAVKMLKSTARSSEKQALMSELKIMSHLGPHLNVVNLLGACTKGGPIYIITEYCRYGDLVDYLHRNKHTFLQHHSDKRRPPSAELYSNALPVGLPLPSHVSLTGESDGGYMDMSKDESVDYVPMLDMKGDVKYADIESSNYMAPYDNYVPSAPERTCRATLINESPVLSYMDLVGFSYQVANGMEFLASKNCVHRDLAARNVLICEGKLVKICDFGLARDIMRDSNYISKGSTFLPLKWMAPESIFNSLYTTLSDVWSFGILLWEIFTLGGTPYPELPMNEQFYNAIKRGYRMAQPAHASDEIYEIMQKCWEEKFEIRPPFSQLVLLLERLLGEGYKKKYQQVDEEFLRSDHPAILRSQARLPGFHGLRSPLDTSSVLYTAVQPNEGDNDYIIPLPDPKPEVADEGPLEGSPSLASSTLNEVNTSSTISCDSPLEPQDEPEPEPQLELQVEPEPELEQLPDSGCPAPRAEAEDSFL
# Outline: as §1
# TrkB(h) = TrkB(h) (Homo sapiens, UniProt Q16620)
# Chain of TrkB(h) (Q16620 32-822): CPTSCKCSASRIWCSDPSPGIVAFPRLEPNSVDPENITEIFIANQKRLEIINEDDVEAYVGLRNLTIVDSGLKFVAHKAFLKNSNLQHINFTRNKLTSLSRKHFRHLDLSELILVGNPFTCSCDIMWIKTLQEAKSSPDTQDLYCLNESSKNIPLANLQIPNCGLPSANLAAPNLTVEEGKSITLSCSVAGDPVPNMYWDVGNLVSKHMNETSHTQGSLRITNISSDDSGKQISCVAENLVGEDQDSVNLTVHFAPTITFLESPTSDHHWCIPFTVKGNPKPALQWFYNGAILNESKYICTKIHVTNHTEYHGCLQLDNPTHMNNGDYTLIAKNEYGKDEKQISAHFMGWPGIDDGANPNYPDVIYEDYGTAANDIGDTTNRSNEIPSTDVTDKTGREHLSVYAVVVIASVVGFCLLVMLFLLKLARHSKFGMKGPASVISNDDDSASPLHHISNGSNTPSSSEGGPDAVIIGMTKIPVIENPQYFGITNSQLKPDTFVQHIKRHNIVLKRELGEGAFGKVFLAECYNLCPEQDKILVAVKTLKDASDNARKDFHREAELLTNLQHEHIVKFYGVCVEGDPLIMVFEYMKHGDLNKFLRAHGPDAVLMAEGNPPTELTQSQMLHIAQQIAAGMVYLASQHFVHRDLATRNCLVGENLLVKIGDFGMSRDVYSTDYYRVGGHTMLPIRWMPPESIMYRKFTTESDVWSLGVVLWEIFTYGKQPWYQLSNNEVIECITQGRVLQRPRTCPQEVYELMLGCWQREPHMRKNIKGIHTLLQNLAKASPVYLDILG
# Outline: as §1
smiles,measurement,setting,value
"CN(C)c1nc2ccc1CCCCn1cc(c3ccccc31)C1=C(C(=O)NC1=O)c1cn(c3ccccc13)CCC2 [Cpd 1, 31-(dimethylamino)-5,15,25,32-tetraazaheptacyclo[28.2.2.1^5,12.1^18,25.0^6,11.0^13,17.0^19,24]hexatriaconta-1(32),6,8,10,12(36),13(17),18(35),19,21,23,30,33-dodecaene-14,16-dione]","Activity at Protein Kinase Assays (% of control), EphB2(h)",EphB2(h),125 % of control
same,"Activity at Protein Kinase Assays (% of control), PKCμ(h)",PKCμ(h),110 % of control
same,"Activity at Protein Kinase Assays (% of control), FGFR3(h)",FGFR3(h),75 % of control
same,"Activity at Protein Kinase Assays (% of control), SGK(h)",SGK(h),93 % of control
same,"Activity at Protein Kinase Assays (% of control), PDGFRβ(h)",PDGFRβ(h),147 % of control
"O=C1NC(=O)C2=C1c1cn(c3ccccc13)CCCc1ccc(c(N3CCCC3)n1)CCCn1cc2c2ccccc21 [Cpd 7, 31-pyrrolidin-1-yl-5,15,25,30-tetraazaheptacyclo[27.2.2.1^5,12.1^18,25.0^6,11.0^13,17.0^19,24]pentatriaconta-1(31),6,8,10,12(35),13(17),18(34),19,21,23,29,32-dodecaene-14,16-dione]","Activity at Protein Kinase Assays (% of control), EphB2(h)",EphB2(h),114 % of control
same,"Activity at Protein Kinase Assays (% of control), TrkB(h)",TrkB(h),106 % of control
same,"Activity at Protein Kinase Assays (% of control), PKCμ(h)",PKCμ(h),113 % of control
same,"Activity at Protein Kinase Assays (% of control), FGFR3(h)",FGFR3(h),117 % of control
same,"Activity at Protein Kinase Assays (% of control), SGK(h)",SGK(h),93 % of control
same,"Activity at Protein Kinase Assays (% of control), PDGFRβ(h)",PDGFRβ(h),105 % of control
"O=C1NC(=O)C2=C1c1cn(c3ccccc13)CCCc1cc(nc(N3CCCC3)c1)CCCn1cc2c2ccccc21 [Cpd 6, 20-pyrrolidin-1-yl-4,14,19,26-tetraazaheptacyclo[24.6.1.1^7,14.1^18,22.0^2,6.0^8,13.0^27,32]pentatriaconta-1(33),2(6),7(35),8,10,12,18(34),19,21,27,29,31-dodecaene-3,5-dione]","Activity at Protein Kinase Assays (% of control), EphB2(h)",EphB2(h),110 % of control
same,"Activity at Protein Kinase Assays (% of control), TrkB(h)",TrkB(h),105 % of control
same,"Activity at Protein Kinase Assays (% of control), PKCμ(h)",PKCμ(h),118 % of control
same,"Activity at Protein Kinase Assays (% of control), FGFR3(h)",FGFR3(h),114 % of control
same,"Activity at Protein Kinase Assays (% of control), SGK(h)",SGK(h),109 % of control
same,"Activity at Protein Kinase Assays (% of control), PDGFRβ(h)",PDGFRβ(h),103 % of control
"CN(C)c1cc2cc(n1)CCCn1cc(c3ccccc31)C1=C(C(=O)NC1=O)c1cn(c3ccccc13)CCC2 [Cpd 2, 20-(dimethylamino)-4,14,19,26-tetraazaheptacyclo[24.6.1.1^7,14.1^18,22.0^2,6.0^8,13.0^27,32]pentatriaconta-1(33),2(6),7(35),8,10,12,18(34),19,21,27,29,31-dodecaene-3,5-dione]","Activity at Protein Kinase Assays (% of control), EphB2(h)",EphB2(h),114 % of control
same,"Activity at Protein Kinase Assays (% of control), TrkB(h)",TrkB(h),98 % of control
same,"Activity at Protein Kinase Assays (% of control), PKCμ(h)",PKCμ(h),118 % of control
same,"Activity at Protein Kinase Assays (% of control), FGFR3(h)",FGFR3(h),84 % of control
same,"Activity at Protein Kinase Assays (% of control), SGK(h)",SGK(h),105 % of control
same,"Activity at Protein Kinase Assays (% of control), PDGFRβ(h)",PDGFRβ(h),101 % of control
